Target: T1, NAD(+) hydrolase SARM1 (Homo sapiens, UniProt Q6SZW1)
T1 sequence (Q6SZW1 whole entry): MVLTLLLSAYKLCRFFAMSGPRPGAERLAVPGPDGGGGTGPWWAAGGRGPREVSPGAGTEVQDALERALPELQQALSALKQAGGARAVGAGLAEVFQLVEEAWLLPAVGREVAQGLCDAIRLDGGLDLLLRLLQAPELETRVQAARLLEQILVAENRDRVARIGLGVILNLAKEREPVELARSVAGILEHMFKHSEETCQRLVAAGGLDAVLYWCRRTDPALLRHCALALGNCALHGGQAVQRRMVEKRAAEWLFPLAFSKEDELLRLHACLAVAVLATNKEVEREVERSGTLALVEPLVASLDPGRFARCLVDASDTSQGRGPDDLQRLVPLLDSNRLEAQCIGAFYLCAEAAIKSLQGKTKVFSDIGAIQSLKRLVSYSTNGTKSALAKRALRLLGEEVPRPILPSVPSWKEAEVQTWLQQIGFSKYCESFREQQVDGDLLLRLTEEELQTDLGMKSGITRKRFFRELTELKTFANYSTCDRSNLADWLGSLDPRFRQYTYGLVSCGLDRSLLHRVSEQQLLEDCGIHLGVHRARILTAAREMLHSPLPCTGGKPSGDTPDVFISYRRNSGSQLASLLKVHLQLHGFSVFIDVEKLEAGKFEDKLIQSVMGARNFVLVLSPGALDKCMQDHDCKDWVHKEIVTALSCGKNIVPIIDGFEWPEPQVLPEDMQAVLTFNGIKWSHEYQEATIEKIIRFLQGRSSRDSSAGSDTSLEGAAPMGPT
Test: Biochemical Assay of the Compounds
Procedure: Preparation of full-length SARM1 (FL-SARM1) lysate: HEK293T cells (ATCC: CRL-3216) were grown on 150 mm TC-treated dishes to 80-90% confluency in complete DMEM (DMEM (Thermo Fisher: 11965175) supplemented with 10% HI-FBS (VWR: 10802-772), 1x Pen/Strep (Thermo Fisher: 15140122), 1x NEAA (Thermo Fisher: 1140050), 1x glutamax (Thermo Fisher: 35050061), and 1 mM sodium pyruvate (Thermo Fisher: 11360070)) at 37 °C and 5% CO2. One hour prior to transfection, the media was replaced with fresh, 37 °C complete DMEM (20 mL per one 150 mm dish) supplemented with additional 10mM glucose (Alfa Aesar AAJ60067EQE). Per one 150 mm dish, 30 µg FL-SARM1 (SEQ. ID.1; cloned in-house) plasmid was dissolved in 1 mL DMEM at ambient temperature and were mixed by inverting the tube 8-10 times.90 µL of GenJet™ in vitro DNA transfection reagent (Ver2) was dissolved in 1 mL DMEM at ambient temperature and were mixed by inverting the tube 8-10 times. The plasmid and transfection agent solutions were combined, mixed by 8-10 inversions and incubated for 10 minutes at ambient temperature.2 mL of this transfection mixture was added to each dish containing HEK293T cells as prepared above followed by a gentle mixing of 4-5 horizontal rotations. The dishes were incubated at 37 °C and 5% CO2 for 24 h. The dishes were removed from the incubator, the medium was aspirated and the cells were scraped off using cell scrapers in ice-cold 1x PBS (5 mL/dish, Thermo Fisher Scientific 10010023). The collected cells were centrifuged at 300 g for 5 minutes at 4 °C. The supernatant was aspirated and the pellet was frozen at -80 °C until needed. The cell pellet from 30 dishes was dissolved in 30 mL 1x PBS supplemented with 4 tablets of Complete, Mini EDTA-free protease inhibitor cocktail at 4 °C. This mixture was sonicated on ice for 10 minutes at 50% amplitude with a 1 second on/1 second off interval using a Model 120 sonicator (Thermo Fisher Scientific, FB120110). The lysate was centrifuged at 16000 g for 10 minutes at 4 °C.

| IC50 [nM] | Structure (SMILES) |
| --- | --- |
| > 10000 | CC1CC2CC(C1)N2C(=O)Nc1ccc(Cl)c(N2CC(OCCN)C2)c1 (stereo not drawn) [WO2025054369, Example 86] |
| < 1000 | CC1CC2CC(C1)N2C(=O)Nc1ccc(Cl)c(N2CC[C@H]2C#N)c1 (stereo partly drawn) [WO2025054369, Example 72] |
| < 1000 | CC1CC2CC(C1)N2C(=O)Nc1ccc(Cl)c(C2CCC2=O)c1 (stereo not drawn) [WO2025054369, Example 83] |
| 5500 | Cc1nnc(C23CC(C)CC(C2)N3C(=O)Nc2ccc(Cl)c([C@@H]3C[C@@H]3C#N)c2)o1 (stereo partly drawn) [WO2025054369, Example 16] |
| < 1000 | CC1CC2CC(C1)N2C(=O)Nc1ccc(Cl)c([C@@H]2CC[C@@H]2C#N)c1 (stereo partly drawn) [WO2025054369, Example 9] |
| < 1000 | Cc1ccc(NC(=O)N2C3CC(C)CC2C3)cc1C1CCC1C#N (stereo not drawn) [WO2025054369, Example 6] |
| < 1000 | Cc1ccc(NC(=O)N2C3CC(C)CC2C3)cc1C12CC(F)(C1)C2 (stereo not drawn) [WO2025054369, Example 23] |
| 5500 | N#C[C@H]1CC[C@H]1c1cc(NC(=O)N2C3CC2CC(C(F)(F)F)C3)ccc1Cl (stereo partly drawn) [WO2025054369, Example 56] |
| > 10000 | Cc1nnc([C@]23CCC[C@H](C2)N3C(=O)Nc2ccc(Cl)c(C3CCC3)c2)o1 [WO2025054369, Example 58] |
| < 1000 | CC1CC2CC(C1)N2C(=O)Nc1ccc(Cl)c([C@@H]2CC[C@H]2n2cnnc2)c1 (relative stereo) [WO2025054369, Example 31] |
| 5500 | N#C[C@H]1CC[C@H]1c1cc(NC(=O)N2C3CC2CC(C(F)(F)F)C3)ccc1C(F)(F)F (stereo partly drawn) [WO2025054369, Example 52] |
| 5500 | Cc1ccc(NC(=O)N2C3CCCC2C3)cc1C1CC(=O)N(C)C1 (stereo not drawn) [WO2025054369, Example 14] |
| < 1000 | CC1CC2CC(C1)N2C(=O)Nc1ccc(Cl)c([C@H]2CC[C@H]2C#N)c1 (stereo partly drawn) [WO2025054369, Example 10] |
| < 1000 | O=C(Nc1ccc(Cl)c([C@H]2C[C@@H](O)C2)c1)N1C2CC1CC(C(F)(F)F)C2 (stereo partly drawn) [WO2025054369, Example 43] |
| < 1000 | CC1CC2CC(C1)N2C(=O)Nc1ccc(Cl)c(C2CC(=O)C2)c1 (stereo not drawn) [WO2025054369, Example 77] |
| 5500 | Cc1ccc(NC(=O)N2C3CCCC2C3)cc1C1CN(CC(F)(F)F)C1 [WO2025054369, Example 26] |
| 5500 | Cc1ccc(NC(=O)N2C3CCCC2C3)cc1C1CCC1 [WO2025054369, Example 12] |
| < 1000 | N#C[C@H]1CC[C@@H]1c1cc(NC(=O)N2C3CC2CC(C(F)(F)F)C3)ccc1C(F)(F)F (stereo partly drawn) [WO2025054369, Example 54] |
| < 1000 | N#C[C@H]1CC[C@H]1c1cc(NC(=O)N2C3CCC2CC(C(F)(F)F)C3)ccc1Cl (relative stereo; form 1) [WO2025054369, Example 44] |
| < 1000 | Cc1nnc(C23CC(C)CC(C2)N3C(=O)Nc2ccc(Cl)c([C@H]3C[C@H]3C#N)c2)o1 (stereo partly drawn) [WO2025054369, Example 17] |
| > 10000 | Cc1nnc([C@]23C[C@H](C[C@H](C(F)(F)F)C2)N3C(=O)Nc2ccc(Cl)c(C3CCC3)c2)o1 [WO2025054369, Example 69] |

Further lines, the compound ahead of its results:

| Structure (SMILES) | IC50 [nM] |
| --- | --- |
| CC1CC2CC(C1)N2C(=O)Nc1ccc(Cl)c([C@@H]2CC[C@H]2n2ccnn2)c1 (relative stereo) [WO2025054369, Example 27] | < 1000 |
| CC1CC2CC(C1)N2C(=O)Nc1ccc(Cl)c(C2CC(O)C2)c1 (stereo not drawn) [WO2025054369, Example 78] | < 1000 |
| CC1CC2CC(C1)N2C(=O)Nc1ccc(Cl)c([C@@H]2CC[C@@H]2n2ccnn2)c1 (relative stereo) [WO2025054369, Example 28] | < 1000 |
| N#C[C@@H]1CC[C@H]1c1cc(NC(=O)N2C3CC2CC(C(F)(F)F)C3)ccc1C(F)(F)F (stereo partly drawn) [WO2025054369, Example 55] | < 1000 |
| Cc1ccc(NC(=O)N2C3CCCC2C3)cc1C12CC(C)(C1)C2 [WO2025054369, Example 24] | < 1000 |
| C[C@@H]1C[C@@H]2C[C@H](C1)N2C(=O)Nc1ccc(Cl)c(N2CC(O)C2)c1 [WO2025054369, Example 92] | < 1000 |
| Cc1ccc(NC(=O)CC2CCC2)cc1C1CC1 [WO2025054369, Example 21] | > 10000 |
| COC(C)(C)c1cc(NC(=O)N2C3CC(C)CC2C3)ccc1Cl (stereo not drawn) [WO2025054369, Example 79] | 5500 |
| N#C[C@@H]1CC[C@@H]1c1cc(NC(=O)N2C3CC2CC(C(F)(F)F)C3)ccc1C(F)(F)F (stereo partly drawn) [WO2025054369, Example 53] | < 1000 |
| C[C@@H]1C[C@@H]2C[C@H](C1)N2C(=O)Nc1ccc(Cl)c(N2CCNC2=O)c1 [WO2025054369, Example 96] | < 1000 |
| CC1CC2CC(C1)N2C(=O)Nc1ccc(Cl)c([C@H]2CC[C@H]2C(F)F)c1 (stereo partly drawn) [WO2025054369, Example 41] | 5500 |
| C[C@]1(O)CC[C@H](c2cc(NC(=O)N3C4CC3CC(C(F)(F)F)C4)ccc2Cl)C1 (stereo partly drawn) [WO2025054369, Example 64] | < 1000 |
| C[C@@]1(O)CC[C@H](c2cc(NC(=O)N3C4CC3CC(C(F)(F)F)C4)ccc2Cl)C1 (stereo partly drawn) [WO2025054369, Example 67] | < 1000 |
| CC1CC2CC(C1)N2C(=O)Nc1ccc(Cl)c([C@@H]2CCC[C@@H]2C#N)c1 (stereo partly drawn) [WO2025054369, Example 60] | < 1000 |
| Cc1ccc(NC(=O)CC2CCC2)cc1C1CCC1 [WO2025054369, Example 11] | > 10000 |
| Cc1nnc([C@@]23CCC[C@@H](C2)N3C(=O)Nc2ccc(Cl)c(C3CCC3)c2)o1 [WO2025054369, Example 59] | 5500 |

| Structure (SMILES) | IC50 [nM] |
| --- | --- |
| Cc1ccc(NC(=O)N2C3CCCC2C3)cc1N1CCN(C)C1=O [WO2025054369, Example 97] | 5500 |
| CC1CC2CC(C1)N2C(=O)Nc1ccc(Cl)c([C@@H]2CC[C@H]2n2nccn2)c1 (relative stereo) [WO2025054369, Example 29] | 5500 |
| C[C@@H]1C[C@@H]2C[C@H](C1)N2C(=O)Nc1ccc(Cl)c(N2CCCC2=O)c1 [WO2025054369, Example 93] | 5500 |
| CC1CC2CC(C1)N2C(=O)Nc1ccc(Cl)c(C2CCC2(F)F)c1 (stereo not drawn) [WO2025054369, Example 76] | < 1000 |
| CC1CC2CC(C1)N2C(=O)Nc1ccc(Cl)c(N2CC[C@H](O)C2)c1 (stereo partly drawn) [WO2025054369, Example 88] | < 1000 |
| Cc1ccc(NC(=O)N2C3CC(C)CC2C3)cc1[C@@H]1CC[C@@H]1C#N (stereo partly drawn) [WO2025054369, Example 7] | < 1000 |
| CC1CC2CC(C1)N2C(=O)Nc1ccc(Cl)c(N2CC[C@@H](O)C2)c1 (stereo partly drawn) [WO2025054369, Example 87] | < 1000 |
| N#C[C@@H]1CC[C@@H]1c1cc(NC(=O)N2C3CC2CC(C(F)(F)F)C3)ccc1Cl (stereo partly drawn) [WO2025054369, Example 33] | < 1000 |
| CC1CC2CC(C1)N2C(=O)Nc1ccc(Cl)c([C@@H]2CC[C@H]2C(F)F)c1 (stereo partly drawn) [WO2025054369, Example 51] | < 1000 |
| CC1CC2CC(C1)N2C(=O)Nc1ccc(Cl)c([C@H]2CCC[C@@H]2C#N)c1 (stereo partly drawn) [WO2025054369, Example 62] | < 1000 |
| Cc1nnc(C23CC(C)CC(C2)N3C(=O)Nc2ccc(C(F)(F)F)c(C3CCC3)c2)o1 (stereo not drawn) [WO2025054369, Example 2] | < 1000 |
| CC1CC2CC(C1)N2C(=O)Nc1ccc(Cl)c([C@@H]2CCC[C@H]2C#N)c1 (stereo partly drawn) [WO2025054369, Example 63] | < 1000 |
| CC1CC2CC(C1)N2C(=O)Nc1ccc(Cl)c([C@@H]2CC[C@@H]2C(F)F)c1 (stereo partly drawn) [WO2025054369, Example 40] | < 1000 |
| CC1CC2CC(C1)N2C(=O)Nc1ccc(C(F)(F)F)c(C2CCC2)c1 (stereo not drawn) [WO2025054369, Example 75] | < 1000 |
| CC1CC2CC(C1)N2C(=O)Nc1ccc(C(F)(F)F)c(N2CC(O)C2)c1 (stereo not drawn) [WO2025054369, Example 90] | < 1000 |
| Cc1ccc(NC(=O)N2C3CC(C)CC2C3)cc1C(C)C#N (stereo not drawn) [WO2025054369, Example 5] | < 1000 |
